Data taken from patent publication US11744839B2, “Method of increasing platelet counts of a subject” (KOREA BASIC SCIENCE INSTITUTE, priority 2021, dated 2023).

Tests used:
[1] = target: T1, BLVRB (Homo sapiens, UniProt P30043); assay: Isothermal titration calorimetry (ITC) of compound binding to BLVRB; conditions: for TΔS / ΔG / ΔH (enthalpy of the reaction) / N (stoichiometry) / contribution from entropy, of the total binding energy: 25 °C; for N (stoichiometry): single-site binding model; for Kd: read-out: KD (dissociation constant), 25 °C
T1 sequence (P30043 1-206): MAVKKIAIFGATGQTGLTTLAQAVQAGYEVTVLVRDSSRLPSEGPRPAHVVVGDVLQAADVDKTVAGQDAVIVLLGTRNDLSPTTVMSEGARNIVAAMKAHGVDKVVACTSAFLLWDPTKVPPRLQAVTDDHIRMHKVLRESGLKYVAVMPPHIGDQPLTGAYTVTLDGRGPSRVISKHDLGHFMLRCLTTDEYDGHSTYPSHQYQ

[2] = target: T1, BLVRB; assay: Dynamic light scattering (DLS) of BLVRB with inhibitor; conditions: molar ratio 0, 1, 5, 10 compound/BLVRB
Text: FIGS. 2A and 2B show DLS results of BLVRB depending on the concentration of phloxine B (FIG. 2A) and erythorosin B (FIG. 2B). Molar ratio of the sample is 0, 1, 5, 10 [erythrosin B or phloxine B/BLVRB]. The horizontal axis represents the diameter of each drug on a logarithmic scale. The vertical axis represents the relative intensity of the signal.
(§1) The inhibition mechanism of these two compounds was investigated in physiological environment by NMR.

[3] = target: T1, BLVRB; assay: NMR titration (HSQC) experiments with 15N-labeled BLVRB; assay type: binding; conditions: half-holo BLVRB 0.3 mM, ratio up to 1:10
Experimental: Ratio 1:0, 1:0.6, 1:1, 1:10 [Half-holo form of BLVRB (0.3 mM):phloxine B and erythrosin B].
as §1
Protein-based NMR spectroscopy is one of the most well-suited methods to identify intermolecular interactions including small molecule and protein interactions. Further, protein-based NMR methods provide information on binding sites, which is of prime interest for optimizing small molecules. Therefore, HSQC experiments of ^15N-labeled BLVRB were performed by titrating increasing amounts of the subject compounds to monitor the chemical shift changes upon the binding of the compounds identified in the enzyme activity assay. In particular, Ser111 was previously identified as a key residue involved in the catalytic mechanism of BLVRB. […] Using the assignment, the chemical shift perturbations (CSPs) of BLVRB by each drug were extracted from the spectra and the binding site of each drug was identified based on the CSPs.
Half-holo form of BLVRB (with NADP^+) was used for NMR experiments. All the subject compounds were dissolved in DMSO-d6. NMR titration and 1D experiments were operated at a ^1H frequency of 800 MHz using a Bruker Avance spectrometer. All experiments were performed at 298 K and 5 mm diameter NMR tubes with a sample volume 500 μL were used.

[4] = test system: rats; conditions: chronic administration; cited from earlier work

| TΔS [1] | ΔG [1] | ΔH (enthalpy of the reaction) [1] | N (stoichiometry) [1] | Kd [1] | contribution from entropy, of the total binding energy [1] | SMILES | size of BLVRB-inhibitor complex [2] | multimerization of BLVRB upon addition of compound [3] | thyroid tumor promotion [4] |
| --- | --- | --- | --- | --- | --- | --- | --- | --- | --- |
| -0.76 ± 0.07 kcal/mol | -8.67 ± 0.05 kcal/mol | -9.43 ± 0.05 kcal/mol | 0.99 | 0.44 ± 0.04 µM |  | O=C(O)c1cc(/N=N/c2ccc(S(=O)(=O)Nc3ccccn3)cc2)ccc1O [Compound of formula 1] |  |  |  |
| 3.50 ± 0.10 kcal/mol | -7.99 ± 0.08 kcal/mol | -4.49 ± 0.06 kcal/mol | 1.07 | 1.38 ± 0.18 µM | 44% | CC1(C)CCC(C)(C)c2cc(NC(=O)c3ccc(C(=O)O)cc3)ccc21 [Compound of formula 3] |  |  |  |
| -1.83 ± 0.09 kcal/mol | -9.13 ± 0.07 kcal/mol | -10.96 ± 0.06 kcal/mol | 1.02 | 0.2 ± 0.02 µM |  | O=C(O)c1cccc(-c2noc(-c3ccccc3F)n2)c1 [Compound of formula 4] |  |  |  |
| 2.14 ± 0.11 kcal/mol | -7.90 ± 0.08 kcal/mol | -5.75 ± 0.08 kcal/mol | 1.01 | 1.63 ± 0.21 µM |  | Cc1nc(-c2ccc(OCC(C)C)c(C#N)c2)sc1C(=O)O [Compound of formula 5] |  |  |  |
| 0.55 ± 0.12 kcal/mol | -7.87 ± 0.07 kcal/mol | -7.32 ± 0.10 kcal/mol | 1.00 | 1.71 ± 0.21 µM |  | O=C(O)c1ccc(-n2nc(-c3ccccc3O)nc2-c2ccccc2O)cc1 [Compound of formula 6] |  |  |  |
| 0.41 ± 0.07 kcal/mol | -8.95 ± 0.06 kcal/mol | -8.54 ± 0.04 kcal/mol | 0.99 | 0.27 ± 0.03 µM |  | Cc1c(Nc2ncccc2C(=O)O)cccc1C(F)(F)F [Compound of formula 7] |  |  |  |
| 1.08 ± 0.17 kcal/mol | -7.84 ± 0.10 kcal/mol | -6.76 ± 0.13 kcal/mol | 1.01 | 1.8 ± 0.31 µM |  | O=C(O)c1cc2ccccc2c(Cc2c(O)c(C(=O)O)cc3ccccc23)c1O [Compound of formula 8] |  |  |  |
| 2.91 ± 0.13 kcal/mol | -9.28 ± 0.11 kcal/mol | -6.38 ± 0.06 kcal/mol | 1.04 | 0.16 ± 0.03 µM | 31% | O=C(O)c1ccccc1-c1c2cc(I)c(=O)c(I)c-2oc2c(I)c(O)c(I)cc12 [Erythrosin B, reference compound] | increase in the size of the BLVRB-inhibitor complex | induce multimerization of BLVRB | promote thyroid tumors in rats |

| SMILES | TΔS [1] | ΔG [1] | ΔH (enthalpy of the reaction) [1] | N (stoichiometry) [1] | Kd [1] | contribution from entropy, of the total binding energy [1] | size of BLVRB-inhibitor complex [2] | multimerization of BLVRB upon addition of compound [3] | thyroid tumor promotion [4] |
| --- | --- | --- | --- | --- | --- | --- | --- | --- | --- |
| O=C([O-])c1c(Cl)c(Cl)c(Cl)c(Cl)c1-c1c2cc(Br)c(=O)c(Br)c-2oc2c(Br)c([O-])c(Br)cc12.[Na+].[Na+] [Phloxine B, reference compound] | 4.12 ± 0.12 kcal/mol | -8.00 ± 0.10 kcal/mol | -3.88 ± 0.06 kcal/mol | 0.99 | 1.36 ± 0.22 µM |  | increase in the size of the BLVRB-inhibitor complex | induce multimerization of BLVRB |  |
